Measurements published in ChEMBL document CHEMBL1201862, “PubChem BioAssay data set” (2004).
One block for each compound: values may come before it. The source made the active and inactive calls.

Columns and labels:
Format in all cases: functional
[1] = biological target: Dual specificity protein kinase CLK4 (Homo sapiens, UniProt Q9HAZ1)
[2] = biological target: T1, Serine/threonine-protein kinase Chk1 (Homo sapiens, UniProt O14757);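 also: measured as one member of a kinome-wide kinase profiling panel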
T1 sequence (O14757 whole entry): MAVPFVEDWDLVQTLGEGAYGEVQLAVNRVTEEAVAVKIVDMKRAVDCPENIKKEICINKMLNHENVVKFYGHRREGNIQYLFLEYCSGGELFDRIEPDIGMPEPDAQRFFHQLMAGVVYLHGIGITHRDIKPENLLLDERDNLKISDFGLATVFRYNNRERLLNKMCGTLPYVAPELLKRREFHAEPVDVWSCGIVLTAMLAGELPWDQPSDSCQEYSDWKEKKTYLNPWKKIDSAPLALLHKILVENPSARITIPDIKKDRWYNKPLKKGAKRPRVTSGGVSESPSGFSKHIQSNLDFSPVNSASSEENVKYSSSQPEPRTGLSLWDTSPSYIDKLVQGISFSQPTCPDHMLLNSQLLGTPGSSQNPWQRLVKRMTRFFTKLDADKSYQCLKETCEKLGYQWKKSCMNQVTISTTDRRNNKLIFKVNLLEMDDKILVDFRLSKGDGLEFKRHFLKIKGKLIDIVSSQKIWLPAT

[3] = biological target: Leucine-rich repeat serine/threonine-protein kinase 2 (Homo sapiens, UniProt Q5S007);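 also: value from a broad kinome-wide panel profiling study in which LRRK2 was one of the kinases tested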
Sequence of Leucine-rich repeat serine/threonine-protein kinase 2 (Q5S007 whole entry): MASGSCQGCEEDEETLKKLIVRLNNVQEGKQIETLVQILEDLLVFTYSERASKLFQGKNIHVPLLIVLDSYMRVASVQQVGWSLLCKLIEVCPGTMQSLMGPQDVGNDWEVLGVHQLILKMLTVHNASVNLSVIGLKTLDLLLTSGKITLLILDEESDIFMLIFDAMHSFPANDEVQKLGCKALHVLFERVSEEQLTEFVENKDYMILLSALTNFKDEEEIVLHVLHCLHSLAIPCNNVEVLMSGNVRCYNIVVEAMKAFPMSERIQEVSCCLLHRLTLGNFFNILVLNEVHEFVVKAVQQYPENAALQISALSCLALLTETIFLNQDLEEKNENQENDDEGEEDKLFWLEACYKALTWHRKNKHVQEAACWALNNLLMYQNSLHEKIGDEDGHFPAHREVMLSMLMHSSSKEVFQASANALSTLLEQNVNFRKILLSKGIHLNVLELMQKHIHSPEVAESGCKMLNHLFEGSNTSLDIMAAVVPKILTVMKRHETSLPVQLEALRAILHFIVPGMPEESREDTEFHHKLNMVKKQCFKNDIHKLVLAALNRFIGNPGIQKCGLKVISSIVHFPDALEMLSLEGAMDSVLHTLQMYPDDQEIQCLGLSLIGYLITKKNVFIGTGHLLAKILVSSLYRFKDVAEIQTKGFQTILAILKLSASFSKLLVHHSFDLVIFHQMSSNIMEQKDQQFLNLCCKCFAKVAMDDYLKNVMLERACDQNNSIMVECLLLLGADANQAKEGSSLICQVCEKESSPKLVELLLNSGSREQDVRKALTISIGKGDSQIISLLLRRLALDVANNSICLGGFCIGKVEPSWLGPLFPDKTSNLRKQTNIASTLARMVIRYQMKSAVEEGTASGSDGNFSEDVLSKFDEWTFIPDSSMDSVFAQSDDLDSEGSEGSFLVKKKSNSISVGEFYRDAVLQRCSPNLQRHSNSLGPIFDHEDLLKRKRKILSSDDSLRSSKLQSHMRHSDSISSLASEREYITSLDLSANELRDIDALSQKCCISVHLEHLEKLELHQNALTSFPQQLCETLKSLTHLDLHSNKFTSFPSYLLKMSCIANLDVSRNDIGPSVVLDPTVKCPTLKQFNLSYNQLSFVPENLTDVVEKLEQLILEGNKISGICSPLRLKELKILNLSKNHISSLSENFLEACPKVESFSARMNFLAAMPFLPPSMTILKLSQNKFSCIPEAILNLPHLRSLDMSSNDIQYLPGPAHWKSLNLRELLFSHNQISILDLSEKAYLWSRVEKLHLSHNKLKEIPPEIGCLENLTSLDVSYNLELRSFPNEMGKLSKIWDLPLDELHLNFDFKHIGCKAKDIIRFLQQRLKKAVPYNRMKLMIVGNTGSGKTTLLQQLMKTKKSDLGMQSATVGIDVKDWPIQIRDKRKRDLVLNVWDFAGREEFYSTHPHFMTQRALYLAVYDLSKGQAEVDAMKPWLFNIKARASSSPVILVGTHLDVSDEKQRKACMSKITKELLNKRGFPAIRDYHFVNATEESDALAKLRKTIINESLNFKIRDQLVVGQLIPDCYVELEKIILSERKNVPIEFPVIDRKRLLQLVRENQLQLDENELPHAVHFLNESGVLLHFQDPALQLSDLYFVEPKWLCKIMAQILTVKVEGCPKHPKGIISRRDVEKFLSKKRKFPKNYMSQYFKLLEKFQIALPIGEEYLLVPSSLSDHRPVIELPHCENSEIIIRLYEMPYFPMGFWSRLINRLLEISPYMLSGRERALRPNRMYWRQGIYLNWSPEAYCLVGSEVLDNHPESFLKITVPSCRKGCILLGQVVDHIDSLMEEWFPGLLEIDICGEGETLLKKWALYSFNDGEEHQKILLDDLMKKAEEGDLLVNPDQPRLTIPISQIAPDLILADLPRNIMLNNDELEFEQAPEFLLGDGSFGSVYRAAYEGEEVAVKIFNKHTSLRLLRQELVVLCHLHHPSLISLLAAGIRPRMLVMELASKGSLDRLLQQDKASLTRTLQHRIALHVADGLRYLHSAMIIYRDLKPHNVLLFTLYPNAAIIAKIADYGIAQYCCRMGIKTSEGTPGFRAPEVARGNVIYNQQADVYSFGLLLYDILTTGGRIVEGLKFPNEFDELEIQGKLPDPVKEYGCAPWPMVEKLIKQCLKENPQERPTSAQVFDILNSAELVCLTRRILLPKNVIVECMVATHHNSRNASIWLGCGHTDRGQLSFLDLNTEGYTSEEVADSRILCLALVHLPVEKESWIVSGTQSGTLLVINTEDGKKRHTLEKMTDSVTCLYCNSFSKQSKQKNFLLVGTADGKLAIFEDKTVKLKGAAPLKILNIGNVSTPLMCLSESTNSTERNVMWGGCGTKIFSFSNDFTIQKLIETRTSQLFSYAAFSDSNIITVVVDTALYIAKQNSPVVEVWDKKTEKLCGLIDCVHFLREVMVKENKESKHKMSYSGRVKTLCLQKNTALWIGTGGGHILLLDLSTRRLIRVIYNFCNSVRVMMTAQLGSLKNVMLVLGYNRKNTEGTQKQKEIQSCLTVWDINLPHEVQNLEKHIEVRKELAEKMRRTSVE

[4] = biological target: T2, Tyrosine-protein kinase receptor TYRO3 (Homo sapiens, UniProt Q06418);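 also: TYRO3 value obtained as one member of a kinome-wide profiling panel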
T2 sequence (Q06418 whole entry): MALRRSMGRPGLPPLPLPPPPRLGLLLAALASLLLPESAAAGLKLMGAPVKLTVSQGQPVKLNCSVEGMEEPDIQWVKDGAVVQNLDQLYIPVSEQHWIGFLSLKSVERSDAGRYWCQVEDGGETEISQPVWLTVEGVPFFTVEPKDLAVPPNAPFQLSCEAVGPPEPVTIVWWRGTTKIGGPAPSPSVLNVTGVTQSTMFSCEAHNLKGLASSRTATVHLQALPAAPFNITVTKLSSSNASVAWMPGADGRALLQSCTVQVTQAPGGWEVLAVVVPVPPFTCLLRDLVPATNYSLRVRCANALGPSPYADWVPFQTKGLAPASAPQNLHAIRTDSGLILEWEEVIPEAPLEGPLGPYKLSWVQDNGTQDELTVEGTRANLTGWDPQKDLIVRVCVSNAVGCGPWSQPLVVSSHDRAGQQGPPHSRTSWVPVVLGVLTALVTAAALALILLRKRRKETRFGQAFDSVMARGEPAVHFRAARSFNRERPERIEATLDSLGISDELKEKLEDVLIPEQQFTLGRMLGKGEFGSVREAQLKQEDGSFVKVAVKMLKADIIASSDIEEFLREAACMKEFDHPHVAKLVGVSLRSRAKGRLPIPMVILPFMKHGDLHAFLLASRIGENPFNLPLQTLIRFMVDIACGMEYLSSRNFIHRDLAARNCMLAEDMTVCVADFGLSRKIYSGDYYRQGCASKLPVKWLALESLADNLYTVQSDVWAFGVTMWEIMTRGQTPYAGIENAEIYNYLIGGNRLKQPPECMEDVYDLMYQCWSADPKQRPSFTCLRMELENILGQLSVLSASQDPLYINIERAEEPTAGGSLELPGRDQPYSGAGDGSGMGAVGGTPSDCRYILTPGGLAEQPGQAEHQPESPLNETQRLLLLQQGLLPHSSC

[5] = biological target: Casein kinase I isoform alpha (Homo sapiens, UniProt P48729)
[6] = biological target: Leukocyte tyrosine kinase receptor (Homo sapiens, UniProt P29376); assay: Navigating the Kinome. Panel member name: LTK
LIM domain kinase 1 = LIM domain kinase 1 (Homo sapiens, UniProt P53667); assay: Navigating the Kinome. Panel member name: LIMK1
[7] = biological target: G protein-coupled receptor kinase 5 (Homo sapiens, UniProt P34947); assay: Navigating the Kinome. Panel member name: GPRK5
Sequence of G protein-coupled receptor kinase 5 (P34947 whole entry): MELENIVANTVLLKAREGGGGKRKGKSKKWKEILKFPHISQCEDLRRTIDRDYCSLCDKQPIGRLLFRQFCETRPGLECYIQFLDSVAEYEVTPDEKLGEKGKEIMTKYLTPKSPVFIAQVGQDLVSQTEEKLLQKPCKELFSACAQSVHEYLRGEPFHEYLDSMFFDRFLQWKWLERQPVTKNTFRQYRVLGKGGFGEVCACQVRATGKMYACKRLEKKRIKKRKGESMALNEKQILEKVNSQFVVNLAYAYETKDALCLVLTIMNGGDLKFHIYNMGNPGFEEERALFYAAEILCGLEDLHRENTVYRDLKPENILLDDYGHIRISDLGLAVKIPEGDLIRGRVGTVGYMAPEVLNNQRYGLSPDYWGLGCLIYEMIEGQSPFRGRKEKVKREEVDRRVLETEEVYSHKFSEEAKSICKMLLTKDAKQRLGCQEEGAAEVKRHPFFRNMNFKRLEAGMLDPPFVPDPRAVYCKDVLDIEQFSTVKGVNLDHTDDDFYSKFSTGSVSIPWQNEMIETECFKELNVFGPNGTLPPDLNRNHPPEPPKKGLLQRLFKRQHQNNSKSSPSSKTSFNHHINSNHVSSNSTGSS

[8] = biological target: Dual specificity tyrosine-phosphorylation-regulated kinase 1B (Homo sapiens, UniProt Q9Y463); assay: Navigating the Kinome. Panel member name: DYRK1B
Sequence of Dual specificity tyrosine-phosphorylation-regulated kinase 1B (Q9Y463 whole entry): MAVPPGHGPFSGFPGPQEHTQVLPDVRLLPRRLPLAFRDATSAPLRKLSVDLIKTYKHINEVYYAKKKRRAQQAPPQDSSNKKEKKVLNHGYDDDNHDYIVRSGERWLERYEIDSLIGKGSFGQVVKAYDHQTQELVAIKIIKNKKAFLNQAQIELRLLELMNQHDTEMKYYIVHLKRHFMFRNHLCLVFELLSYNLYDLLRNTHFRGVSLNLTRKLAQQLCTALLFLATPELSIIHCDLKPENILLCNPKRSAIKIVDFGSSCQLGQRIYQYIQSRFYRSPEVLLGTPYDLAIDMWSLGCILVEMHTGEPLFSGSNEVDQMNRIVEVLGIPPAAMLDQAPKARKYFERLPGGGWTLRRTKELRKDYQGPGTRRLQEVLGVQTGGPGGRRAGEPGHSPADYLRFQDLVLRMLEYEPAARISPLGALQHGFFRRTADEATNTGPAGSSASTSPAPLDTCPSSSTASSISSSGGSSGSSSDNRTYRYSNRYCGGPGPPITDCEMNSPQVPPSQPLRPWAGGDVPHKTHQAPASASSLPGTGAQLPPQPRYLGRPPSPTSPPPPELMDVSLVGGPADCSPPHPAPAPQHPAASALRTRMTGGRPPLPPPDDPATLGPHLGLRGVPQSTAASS

[9] = biological target: Mitogen-activated protein kinase kinase kinase kinase 2 (Homo sapiens, UniProt Q12851);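 also: measured as one member of a kinome-wide kinase panel, with MAP4K2 as the panel entry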
[10] = biological target: Serine/threonine-protein kinase pim-1 (Homo sapiens, UniProt P11309)
Sequence of Serine/threonine-protein kinase pim-1 (P11309 whole entry): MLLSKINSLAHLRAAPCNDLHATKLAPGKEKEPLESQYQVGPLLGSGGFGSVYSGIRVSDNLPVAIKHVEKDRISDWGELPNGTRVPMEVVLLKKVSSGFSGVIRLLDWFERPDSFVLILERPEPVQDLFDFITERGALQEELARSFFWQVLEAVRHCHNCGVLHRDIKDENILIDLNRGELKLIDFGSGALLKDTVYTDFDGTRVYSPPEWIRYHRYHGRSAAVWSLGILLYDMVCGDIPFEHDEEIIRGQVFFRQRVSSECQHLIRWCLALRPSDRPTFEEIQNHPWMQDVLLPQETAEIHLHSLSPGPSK

[11] = biological target: Cyclin-dependent kinase 8 (Homo sapiens, UniProt P49336); assay: Navigating the Kinome. Panel member name: CDK8
[12] = biological target: Dual specificity mitogen-activated protein kinase kinase 2 (Homo sapiens, UniProt P36507); assay: Navigating the Kinome. Panel member name: MAP2K2
Sequence of Dual specificity mitogen-activated protein kinase kinase 2 (P36507 whole entry): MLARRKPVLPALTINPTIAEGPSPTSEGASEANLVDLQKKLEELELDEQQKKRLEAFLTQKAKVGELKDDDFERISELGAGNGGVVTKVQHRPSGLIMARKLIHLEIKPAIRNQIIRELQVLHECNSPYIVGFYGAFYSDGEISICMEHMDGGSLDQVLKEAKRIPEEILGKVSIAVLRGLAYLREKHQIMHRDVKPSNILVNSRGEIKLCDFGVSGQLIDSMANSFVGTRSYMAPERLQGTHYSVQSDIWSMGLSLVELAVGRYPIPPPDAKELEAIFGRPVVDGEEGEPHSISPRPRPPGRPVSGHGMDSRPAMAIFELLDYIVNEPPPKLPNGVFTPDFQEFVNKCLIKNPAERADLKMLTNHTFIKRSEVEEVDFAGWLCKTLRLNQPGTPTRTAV

[13] = biological target: T3, Multidrug resistance protein CDR2 (Candida albicans (strain SC5314 / ATCC MYA-2876) (Yeast), UniProt P78595); assay: inhibition of Nile Red efflux via Candida CDR2 – S. cerevisiae AD1-8u, singleplex, Cherry Pick1 hits, dose response (AID 588604)
T3 sequence (P78595 whole entry): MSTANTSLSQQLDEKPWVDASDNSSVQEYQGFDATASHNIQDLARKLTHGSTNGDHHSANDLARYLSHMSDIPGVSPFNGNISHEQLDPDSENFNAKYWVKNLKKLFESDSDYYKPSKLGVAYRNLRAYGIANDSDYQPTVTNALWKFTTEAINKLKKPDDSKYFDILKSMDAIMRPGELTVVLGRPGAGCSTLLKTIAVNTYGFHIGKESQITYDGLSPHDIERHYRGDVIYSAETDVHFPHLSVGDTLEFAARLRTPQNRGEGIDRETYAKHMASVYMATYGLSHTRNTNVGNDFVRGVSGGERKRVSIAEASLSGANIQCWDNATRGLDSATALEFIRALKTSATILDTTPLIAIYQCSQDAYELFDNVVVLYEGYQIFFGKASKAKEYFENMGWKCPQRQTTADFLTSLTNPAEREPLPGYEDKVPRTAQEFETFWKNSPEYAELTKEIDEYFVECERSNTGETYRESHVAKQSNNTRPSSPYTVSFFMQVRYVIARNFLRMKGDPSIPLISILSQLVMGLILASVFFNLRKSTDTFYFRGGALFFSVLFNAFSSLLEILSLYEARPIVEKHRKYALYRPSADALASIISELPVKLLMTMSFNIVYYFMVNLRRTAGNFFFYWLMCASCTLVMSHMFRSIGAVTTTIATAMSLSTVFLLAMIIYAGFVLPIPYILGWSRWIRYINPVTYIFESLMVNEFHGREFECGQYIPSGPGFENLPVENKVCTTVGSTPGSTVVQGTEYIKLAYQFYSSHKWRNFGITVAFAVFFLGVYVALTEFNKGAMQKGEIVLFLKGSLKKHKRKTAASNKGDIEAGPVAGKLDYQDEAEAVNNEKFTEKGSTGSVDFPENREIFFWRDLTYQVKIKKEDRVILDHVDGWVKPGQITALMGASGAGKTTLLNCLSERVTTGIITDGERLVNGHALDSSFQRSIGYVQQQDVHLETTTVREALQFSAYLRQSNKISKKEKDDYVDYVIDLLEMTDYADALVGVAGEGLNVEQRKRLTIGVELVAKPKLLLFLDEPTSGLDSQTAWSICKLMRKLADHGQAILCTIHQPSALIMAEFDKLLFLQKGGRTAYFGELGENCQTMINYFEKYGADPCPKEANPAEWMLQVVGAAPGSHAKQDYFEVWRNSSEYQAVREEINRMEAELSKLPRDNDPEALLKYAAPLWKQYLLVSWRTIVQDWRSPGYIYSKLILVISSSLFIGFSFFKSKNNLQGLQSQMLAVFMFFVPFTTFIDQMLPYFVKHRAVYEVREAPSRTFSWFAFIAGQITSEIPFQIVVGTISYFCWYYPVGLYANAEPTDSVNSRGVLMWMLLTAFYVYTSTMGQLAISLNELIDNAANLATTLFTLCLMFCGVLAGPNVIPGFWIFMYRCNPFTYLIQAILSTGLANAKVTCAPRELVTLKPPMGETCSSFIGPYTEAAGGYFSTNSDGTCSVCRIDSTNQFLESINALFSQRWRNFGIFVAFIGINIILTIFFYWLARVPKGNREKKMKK

[14] = biological target: T4, Small ubiquitin-related modifier 1 (Homo sapiens, UniProt P63165); assay: SUMO1 protein interaction blockers, potency – biochemical, fluorescence polarization, uHTS hits, dose response (AID 624382); conditions: read-out: IC50_Mean
T4 sequence (P63165 whole entry): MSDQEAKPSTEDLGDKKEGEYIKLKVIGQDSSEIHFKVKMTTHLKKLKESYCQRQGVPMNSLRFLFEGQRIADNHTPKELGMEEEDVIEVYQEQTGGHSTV

Insulin-degrading enzyme = biological target: T5, Insulin-degrading enzyme (Homo sapiens, UniProt P14735); assay: Dose Response: Fluorescence polarization-based cell-based high throughput dose response assay for inhibitors of insulin-degrading enzyme (IDE). [Related pubchem assays: 434962 (Primary screen (IDE inhibitors in singlicate)), 449730 (Counterscreen (Cytotoxicity in triplicate)), 435028 (Confirmation (IDE inhibitors in triplicate)), 434984 (Summary …
T5 sequence (P14735 whole entry): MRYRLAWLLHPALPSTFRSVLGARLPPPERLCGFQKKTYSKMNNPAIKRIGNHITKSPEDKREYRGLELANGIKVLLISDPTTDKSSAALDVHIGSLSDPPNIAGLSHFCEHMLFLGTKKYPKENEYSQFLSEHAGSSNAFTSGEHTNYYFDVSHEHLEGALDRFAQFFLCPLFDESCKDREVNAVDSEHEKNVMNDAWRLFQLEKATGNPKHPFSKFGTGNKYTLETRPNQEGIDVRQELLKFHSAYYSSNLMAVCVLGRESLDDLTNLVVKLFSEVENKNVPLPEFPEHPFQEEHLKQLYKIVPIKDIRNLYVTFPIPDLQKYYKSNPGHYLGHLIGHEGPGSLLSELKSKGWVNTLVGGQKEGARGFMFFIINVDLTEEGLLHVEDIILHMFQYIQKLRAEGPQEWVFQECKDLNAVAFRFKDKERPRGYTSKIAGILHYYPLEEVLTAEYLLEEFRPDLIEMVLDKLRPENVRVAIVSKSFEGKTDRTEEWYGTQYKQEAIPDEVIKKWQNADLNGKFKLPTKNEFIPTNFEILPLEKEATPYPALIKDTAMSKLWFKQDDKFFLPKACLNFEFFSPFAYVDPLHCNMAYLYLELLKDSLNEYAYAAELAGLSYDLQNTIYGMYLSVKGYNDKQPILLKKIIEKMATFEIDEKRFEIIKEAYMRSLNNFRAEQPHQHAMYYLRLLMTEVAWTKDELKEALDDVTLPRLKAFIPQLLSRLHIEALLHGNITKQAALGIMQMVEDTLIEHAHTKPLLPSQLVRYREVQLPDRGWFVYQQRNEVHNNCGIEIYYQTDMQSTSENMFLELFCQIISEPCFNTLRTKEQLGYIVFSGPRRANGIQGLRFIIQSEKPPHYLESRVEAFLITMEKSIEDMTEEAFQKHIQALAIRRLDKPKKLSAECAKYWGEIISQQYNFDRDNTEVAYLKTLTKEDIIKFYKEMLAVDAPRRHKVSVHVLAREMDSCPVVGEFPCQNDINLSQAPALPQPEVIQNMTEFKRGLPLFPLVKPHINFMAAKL

[15] = Counterscreen for IDE inhibitors: Luminescence-based cell-based high throughput dose response assay to identify compounds that are cytotoxic to HEK cells. [Related pubchem assays: 434962 (Primary screen (IDE inhibitors in singlicate)), 449730 (Counterscreen (Cytotoxicity in triplicate)), 435028 (Confirmation (IDE inhibitors in triplicate)) …; conditions: HEK293
[16] = biological target: T4, Small ubiquitin-related modifier 1; assay: SUMO1 protein-protein binding blockers, potency – biochemical, FRET, dose response (AID 624383); conditions: read-out: IC50_Mean

Sequence of Dual specificity protein kinase CLK4 (Q9HAZ1 whole entry): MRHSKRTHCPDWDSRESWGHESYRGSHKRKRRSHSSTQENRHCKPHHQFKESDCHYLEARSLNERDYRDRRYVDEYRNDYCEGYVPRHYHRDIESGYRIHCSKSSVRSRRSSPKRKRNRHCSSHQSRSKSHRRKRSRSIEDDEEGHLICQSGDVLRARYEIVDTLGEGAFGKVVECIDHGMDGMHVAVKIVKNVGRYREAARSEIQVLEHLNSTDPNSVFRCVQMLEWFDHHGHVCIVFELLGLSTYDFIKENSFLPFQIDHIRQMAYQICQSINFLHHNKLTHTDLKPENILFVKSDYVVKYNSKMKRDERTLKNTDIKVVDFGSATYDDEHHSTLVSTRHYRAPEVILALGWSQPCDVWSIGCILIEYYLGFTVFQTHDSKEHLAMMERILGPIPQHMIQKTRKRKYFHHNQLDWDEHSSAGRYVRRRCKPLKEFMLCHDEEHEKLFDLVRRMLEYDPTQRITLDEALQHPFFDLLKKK

Ki [1]: 63.1 µM (active)
Ki [2]: 63.1 µM (active)
Ki [3]: 100 µM (active)
Ki [4]: 50.1 µM (active)
Ki [5]: 79.4 µM (active)
Ki [6]: 100 µM (active)
Ki (LIM domain kinase 1): 63.1 µM (active)
Ki [7]: 50.1 µM (active)
Ki [8]: 63.1 µM (active)
Compound: Nc1nnc2cccc(Cl)n12

Ki [9]: 2.51 µM (active)
Ki [10]: 2.51 µM (active)
Ki [11]: 1 µM (active)
Ki [12]: 1.26 µM (active)
Compound: Nc1cc2c(Oc3ccc(Cl)cc3)cncc2s1

Compound: O=C1Nc2ccccc2/C1=C/c1c[nH]c(-c2ccccc2)n1
EC50 [13]: 3.89 µM (active)
IC50 [14]: > 66.6 µM (inactive)
IC50 (Insulin-degrading enzyme): > 55.9 µM (not active)
IC50 [15]: 18.1 µM (not active)
IC50 [16]: 4.96 µM (active)
